{
  "source": "ChEMBL document CHEMBL3856211",
  "about": "“A critical review of both the synthesis approach and the receptor profile of the 8-chloro-1-(2',4'-dichlorophenyl)-N-piperidin-1-yl-1,4,5,6-tetrahydrobenzo[6,7]cyclohepta[1,2-c]pyrazole-3-carboxamide and analogue derivatives” (Eur J Med Chem, 2016)",
  "key": {"Cannabinoid receptor 1 [1]": {"target": "Cannabinoid receptor 1 (Mus musculus, UniProt P47746)", "sequence (P47746 whole entry)": "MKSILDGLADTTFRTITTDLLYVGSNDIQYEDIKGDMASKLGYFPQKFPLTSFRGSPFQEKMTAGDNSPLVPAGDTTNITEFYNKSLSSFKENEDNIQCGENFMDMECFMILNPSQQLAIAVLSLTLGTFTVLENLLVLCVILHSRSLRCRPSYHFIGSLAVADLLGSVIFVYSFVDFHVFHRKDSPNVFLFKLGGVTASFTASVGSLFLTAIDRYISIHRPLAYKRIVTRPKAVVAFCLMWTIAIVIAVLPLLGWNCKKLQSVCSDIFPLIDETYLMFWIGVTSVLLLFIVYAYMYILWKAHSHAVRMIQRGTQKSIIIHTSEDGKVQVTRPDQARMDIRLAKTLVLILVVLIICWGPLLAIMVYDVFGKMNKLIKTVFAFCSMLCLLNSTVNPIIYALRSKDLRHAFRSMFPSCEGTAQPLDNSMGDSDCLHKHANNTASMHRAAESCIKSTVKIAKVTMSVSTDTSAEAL", "assay": "Displacement of [3H]-CP55,940 from CB1 receptor in mouse whole brain membranes after 60 mins by liquid scintillation spectrometry", "assay_type": "cell membranes, Membrane"}, "[2]": {"assay": "Selectivity ratio of Ki for human CB2 receptor to Ki for CB1 receptor in mouse whole brain membranes", "assay_type": "cell membranes"}, "Cannabinoid receptor 2": {"target": "Cannabinoid receptor 2 (Homo sapiens, UniProt P34972)", "sequence (P34972 whole entry)": "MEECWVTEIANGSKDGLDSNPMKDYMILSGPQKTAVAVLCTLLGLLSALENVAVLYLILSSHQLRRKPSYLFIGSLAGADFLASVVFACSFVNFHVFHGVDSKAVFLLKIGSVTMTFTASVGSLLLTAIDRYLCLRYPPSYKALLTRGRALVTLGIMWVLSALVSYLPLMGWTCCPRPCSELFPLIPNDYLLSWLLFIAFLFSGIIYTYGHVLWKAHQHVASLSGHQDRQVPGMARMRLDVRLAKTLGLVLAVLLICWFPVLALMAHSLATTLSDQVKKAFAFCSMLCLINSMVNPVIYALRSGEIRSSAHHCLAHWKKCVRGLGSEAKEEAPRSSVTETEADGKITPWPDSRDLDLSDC", "assay": "Displacement of [3H]-CP55,940 from human CB2 receptor transfected in CHO cell membranes after 60 mins by liquid scintillation spectrometry"}, "[3]": {"target": "Cannabinoid receptor 1 (Mus musculus) (UniProt P47746)", "sequence (P47746 whole entry)": "as the sequence (P47746 whole entry) above", "assay": "Intrinsic activity at CB1 receptor in mouse N1E-115 cells assessed as phosphorylation of ERK1/2 at 1 nM to 10 uM after 10 mins by Western blot method", "assay_type": "cell-based"}, "[4]": {"target": "Cannabinoid receptor 1 (Mus musculus) (UniProt P47746)", "assay": "Intrinsic activity at CB1 receptor in mouse N1E-115 cells assessed as phosphorylation of ERK1/2 at 1 uM after 10 mins by Western blot method relative to control", "assay_type": "cell-based"}, "[5]": {"target": "Cannabinoid receptor 1 (Mus musculus) (UniProt P47746)", "assay": "Antagonist activity at CB1 receptor in mouse N1E-115 cells assessed as inhibition of WIN55,212-2-induced phosphorylation of ERK1/2 by measuring phosphorylated ERK1/2 level at 1 uM preincubated for 5 mins followed by WIN55,212-2 addition measured after 10 mins by Western blot method", "assay_type": "cell-based", "set-up": "scale not given: the % may be the effect or the level left"}, "Cannabinoid receptor 1 [6]": {"target": "Cannabinoid receptor 1 (Homo sapiens, UniProt P21554)", "sequence (P21554 whole entry)": "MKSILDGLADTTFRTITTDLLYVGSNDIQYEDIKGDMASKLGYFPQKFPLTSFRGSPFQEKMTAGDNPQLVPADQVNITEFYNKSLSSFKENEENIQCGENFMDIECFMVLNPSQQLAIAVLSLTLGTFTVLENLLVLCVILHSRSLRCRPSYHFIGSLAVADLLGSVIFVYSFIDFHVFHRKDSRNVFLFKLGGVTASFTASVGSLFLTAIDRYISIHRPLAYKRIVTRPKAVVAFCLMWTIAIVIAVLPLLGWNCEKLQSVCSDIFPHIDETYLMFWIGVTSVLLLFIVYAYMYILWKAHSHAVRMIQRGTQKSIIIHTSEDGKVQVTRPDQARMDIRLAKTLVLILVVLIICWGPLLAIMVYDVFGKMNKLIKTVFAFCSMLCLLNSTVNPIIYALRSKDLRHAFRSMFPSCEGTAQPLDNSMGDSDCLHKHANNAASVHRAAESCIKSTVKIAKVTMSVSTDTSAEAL", "assay": "Displacement of [3H]-CP55,940 from human CB1 receptor transfected in CHO cell membranes"}},
  "note": "Values joined by “and” are separate entries in the source; they are usually repeats but may differ in a detail not shown here. Equal entries are not always repeated. Active and inactive are the calls of the source. No cut-off for these calls is given here.",
  "data": [
    {"smiles": "CC1(C)C2CCC(CNC(=O)c3nn(-c4ccc(Cl)cc4Cl)c4c3CCCc3ccc(Cl)cc3-4)C1C2", "note": "(stereo unspecified)", "values": [
      {"measurement": "Ki", "setting": "Cannabinoid receptor 1 [1]", "value": 17.3, "unit": "nM"},
      {"measurement": "Ratio Ki", "setting": "[2]", "value": 0.79},
      {"measurement": "Ki", "setting": "Cannabinoid receptor 2", "value": 13.6, "unit": "nM"},
      {"measurement": "Activity", "setting": "[3]", "value": "Active"}
    ]},
    {"smiles": "O=C(NN1CCCCCC1)c1nn(-c2ccc(Cl)cc2Cl)c2c1CCCc1cc(Cl)ccc1-2", "values": [
      {"measurement": "Ki", "setting": "Cannabinoid receptor 1 [1]", "value": 4.5, "unit": "nM"},
      {"measurement": "Intrinsic activity", "setting": "[4]", "value": 107, "unit": "%"},
      {"measurement": "Ratio Ki", "setting": "[2]", "value": 6.24},
      {"measurement": "Ki", "setting": "Cannabinoid receptor 2", "value": 28.1, "unit": "nM"},
      {"measurement": "Activity", "setting": "[5]", "value": 102, "unit": "%"}
    ]},
    {"smiles": "Cc1ccc(Cn2nc(C(=O)NCC3CCC4CC3C4(C)C)c3c2-c2ccc(Cl)cc2CCC3)cc1", "note": "(stereo unspecified)", "values": [
      {"measurement": "Ki", "setting": "Cannabinoid receptor 1 [1]", "value": 313, "unit": "nM"},
      {"measurement": "Ratio Ki", "setting": "[2]", "value": 0.03},
      {"measurement": "Ki", "setting": "Cannabinoid receptor 2", "value": 9.5, "unit": "nM"}
    ]},
    {"smiles": "Cc1ccc(Cn2nc(C(=O)NCC3CCC4CC3C4(C)C)c3c2-c2cc(Cl)ccc2CCC3)cc1", "note": "(stereo unspecified)", "values": [
      {"measurement": "Ki", "setting": "Cannabinoid receptor 1 [1]", "value": 169, "unit": "nM"},
      {"measurement": "Ratio Ki", "setting": "[2]", "value": 0.3},
      {"measurement": "Ki", "setting": "Cannabinoid receptor 2", "value": 51.1, "unit": "nM"}
    ]},
    {"smiles": "Cc1c(C(=O)NN2CCCCC2)nn(-c2ccc(Cl)cc2Cl)c1-c1ccc(Cl)cc1", "values": [
      {"measurement": "Intrinsic activity", "setting": "[4]", "value": 110, "unit": "%"},
      {"measurement": "Activity", "setting": "[5]", "value": 108, "unit": "%"}
    ]},
    {"smiles": "O=C(NCC1CCCCC1)c1nn(-c2ccc(Cl)cc2Cl)c2c1CCCc1cc(Cl)ccc1-2", "values": [
      {"measurement": "Ki", "setting": "Cannabinoid receptor 1 [1]", "value": 19.4, "unit": "nM"},
      {"measurement": "Intrinsic activity", "setting": "[4]", "value": 100, "unit": "%"},
      {"measurement": "Ratio Ki", "setting": "[2]", "value": 1.64},
      {"measurement": "Ki", "setting": "Cannabinoid receptor 2", "value": 31.8, "unit": "nM"},
      {"measurement": "Activity", "setting": "[5]", "value": 109, "unit": "%"}
    ]},
    {"smiles": "CC1(C)C2CCC(CNC(=O)c3nn(-c4ccc(Cl)cc4Cl)c4c3CCCc3cc(Cl)ccc3-4)C1C2", "note": "(stereo unspecified)", "values": [
      {"measurement": "Ki", "setting": "Cannabinoid receptor 1 [1]", "value": 3.6, "unit": "nM"},
      {"measurement": "Ratio Ki", "setting": "[2]", "value": 5.42},
      {"measurement": "Ki", "setting": "Cannabinoid receptor 2", "value": 19.5, "unit": "nM"},
      {"measurement": "Activity", "setting": "[3]", "value": "Active"}
    ]},
    {"smiles": "OC(CC1CCCCC1)c1nn(-c2ccc(Cl)cc2Cl)c2c1CCCc1cc(Cl)ccc1-2", "note": "(stereo unspecified)", "values": [
      {"measurement": "Ki", "setting": "Cannabinoid receptor 1 [1]", "value": 154, "unit": "nM"},
      {"measurement": "Ratio Ki", "setting": "[2]", "value": 0.16},
      {"measurement": "Ki", "setting": "Cannabinoid receptor 2", "value": 24, "unit": "nM"}
    ]},
    {"smiles": "O=C(NN1CCCC1)c1nn(-c2ccc(Cl)cc2Cl)c2c1CCCc1cc(Cl)ccc1-2", "values": [
      {"measurement": "Ki", "setting": "Cannabinoid receptor 1 [1]", "value": 17.2, "unit": "nM"},
      {"measurement": "Intrinsic activity", "setting": "[4]", "value": 95, "unit": "%"},
      {"measurement": "Ratio Ki", "setting": "[2]", "value": 10.6},
      {"measurement": "Ki", "setting": "Cannabinoid receptor 2", "value": 182, "unit": "nM"},
      {"measurement": "Activity", "setting": "[5]", "value": 103, "unit": "%"}
    ]},
    {"smiles": "O=C(NC1CCCCC1)c1nn(-c2ccc(Cl)cc2Cl)c2c1CCCc1cc(Cl)ccc1-2", "values": [
      {"measurement": "Ki", "setting": "Cannabinoid receptor 1 [1]", "value": 10.2, "unit": "nM"},
      {"measurement": "Intrinsic activity", "setting": "[4]", "value": 113, "unit": "%"},
      {"measurement": "Ratio Ki", "setting": "[2]", "value": 1.75},
      {"measurement": "Ki", "setting": "Cannabinoid receptor 2", "value": 17.9, "unit": "nM"},
      {"measurement": "Activity", "setting": "[5]", "value": 117, "unit": "%"}
    ]},
    {"smiles": "O=C(NC[C@H]1CCCO1)c1nn(-c2ccc(Cl)cc2Cl)c2c1CCCc1cc(Cl)ccc1-2", "values": [
      {"measurement": "Ki", "setting": "Cannabinoid receptor 1 [1]", "value": 24.8, "unit": "nM"},
      {"measurement": "Intrinsic activity", "setting": "[4]", "value": 113, "unit": "%"},
      {"measurement": "Ratio Ki", "setting": "[2]", "value": 2.1},
      {"measurement": "Ki", "setting": "Cannabinoid receptor 2", "value": 52.1, "unit": "nM"},
      {"measurement": "Activity", "setting": "[5]", "value": 118, "unit": "%"}
    ]},
    {"smiles": "CCCCCCC(C)(C)c1ccc([C@@H]2C[C@H](O)CC[C@H]2CCCO)c(O)c1", "note": "[CP-55940]", "values": [
      {"measurement": "Ki", "setting": "Cannabinoid receptor 1 [1]", "value": 0.62, "unit": "nM"}
    ]},
    {"smiles": "O=C(NN1CCCCC1)c1nn(-c2ccc(Cl)cc2Cl)c2c1CCCc1cc(Cl)ccc1-2", "values": [
      {"measurement": "Ki", "setting": "Cannabinoid receptor 1 [1]", "value": "8.18 nM and 4.2 nM"},
      {"measurement": "Intrinsic activity", "setting": "[4]", "value": 111, "unit": "%"},
      {"measurement": "Ki", "setting": "Cannabinoid receptor 1 [6]", "value": 126, "unit": "nM"},
      {"measurement": "Ratio Ki", "setting": "[2]", "value": 13.3},
      {"measurement": "Ki", "setting": "Cannabinoid receptor 2", "value": "55.7 nM and 85.2 nM"},
      {"measurement": "Activity", "setting": "[5]", "value": 115, "unit": "%"}
    ]},
    {"smiles": "O=C(CC1CCCCC1)c1nn(-c2ccc(Cl)cc2Cl)c2c1CCCc1cc(Cl)ccc1-2", "values": [
      {"measurement": "Ki", "setting": "Cannabinoid receptor 1 [1]", "value": 8.5, "unit": "nM"},
      {"measurement": "Intrinsic activity", "setting": "[4]", "value": 115, "unit": "%"},
      {"measurement": "Ratio Ki", "setting": "[2]", "value": 38.2},
      {"measurement": "Ki", "setting": "Cannabinoid receptor 2", "value": 325, "unit": "nM"},
      {"measurement": "Activity", "setting": "[5]", "value": 105, "unit": "%"}
    ]},
    {"smiles": "O=C(NCC12CC3CC(CC(C3)C1)C2)c1nn(-c2ccc(Cl)cc2Cl)c2c1CCCc1cc(Cl)ccc1-2", "values": [
      {"measurement": "Ki", "setting": "Cannabinoid receptor 1 [1]", "value": 19.1, "unit": "nM"},
      {"measurement": "Intrinsic activity", "setting": "[4]", "value": 98, "unit": "%"},
      {"measurement": "Ratio Ki", "setting": "[2]", "value": 0.69},
      {"measurement": "Ki", "setting": "Cannabinoid receptor 2", "value": 13.3, "unit": "nM"},
      {"measurement": "Activity", "setting": "[5]", "value": 108, "unit": "%"}
    ]}
  ]
}
